Laboratory results: patent US20110287948A1, “MEASUREMENT OF MATERIAL PROPERTIES AND RELATED METHODS AND COMPOSITIONS BASED ON CYTOADHERENCE” (Massachusetts Institute of Technology, priority 2010, published 2011)
Entries after “also recorded” stand apart in the source; their conditions may differ.

Key:
RBCs = assay: Deformability cytometer: velocity of glutaraldehyde-treated RBCs through constrictions; type: cell-based, human
Source text: The device design includes periodically spaced, triangle-shaped pillars and the gaps between these pillars result in well-controlled constrictions for RBCs to pass. The height of the device was set to 4.2 μm. RBCs were forced to assume a flat orientation before entering each constriction. This height, in addition to filters at the reservoirs, prevented white blood cells from entering the device, and permitted diluted whole blood to be used directly.
A mold of the device was made on a silicon wafer using photolithography and reactive-ion etching techniques. A 5× reduction step-and-repeat projection stepper (Nikon NSR2005i9, Nikon Precision) was used for patterning. The spacing between pillars was 3 μm, and the depth of the device was 4.2 μm. The device was made using standard PDMS casting protocols and bonded to a glass slide.
In experiments involving blood, 1 μl of whole blood (−50% hematocrit) was diluted in 100 μl of the PBS-pluronic-BSA solution for all of the experiments. In experiments involving parasites that express GFP, no further treatment was performed. In experiments involving healthy RBCs, 1 μl of whole blood (Research Blood Components, Brighton, Mass.), 1 μl of 50 μg/ml of Cell Tracker Orange (Invitrogen, Carlsbad, Calif.), and 98 μl of PBS were mixed with the indicated concentration of glutaraldehyde and allowed to sit for 30 minutes. The sample was then washed 3 times with the PBS-Pluronic-BSA solution. In experiments involving reticulocytes, 1 μl of whole blood, 89 μl of the PBS-Pluronic-BSA solution, and 10 μl of 1×10^−6M thiazole orange were mixed and allowed to sit for 20 minutes before starting experiments. Videos were obtained in which reticulocytes appear as uniformly fluorescent cells under the GFP filter set, while mature RBCs appear as shadows.
The PBS-Pluronic-BSA solution was pumped through the device for 30 minutes to coat the device walls with Pluronic and BSA. The RBC-PBS-Pluronic-BSA suspension was then injected into the device. Differences in pressure between the two reservoirs were generated hydrostatically by a difference in water column height. […]

[1] = test system: P. falciparum-infected RBCs (iRBCs) and co-cultured uninfected RBCs (uRBCs); assay: Microfluidic deformability cytometer: RBC mobility after artesunate drug treatment; type: cell-based, human; conditions: for separation resolution between iRBCs and uRBCs after drug treatment: after artesunate treatment vs untreated
Source text: The device used in this example comprises a series of equally spaced triangular pillar arrays with pore sizes ranging from 2.5 to 4 um (FIG. 55A illustrates the case of 3 um pore size). Compared to the diameter of an average RBC (˜7.5 um), the smaller pore sizes are designed to impose similar mechanical constraints on the cells as if they are passing through blood capillaries and splenic meshwork. Driven by constant pressure gradient in the sub-Pascal-per-micrometer range, RBCs are able to deform substantially at each constriction and traverse along the channel. The dynamic deformability of RBCs is then characterized by their mobility: the ability to deform repeatedly in order to pass through multiple constrictions in series.
FIG. 55A depicts an experimental schematic of the microfluidic system. A heating chamber (Olympus) was mounted to the inverted microscope stage. Four heaters for the inner water bath, microscope stage, chamber top, and lens were designed to accurately control the ambient temperature inside the chamber. The PDMS-glass bonded device consists of the inlet and outlet reservoirs and main channels with triangular pillar arrays. It was placed inside the heating chamber with only the inlet reservoir connecting to an external syringe via a 20 cm-tubing. The reservoirs were 500×500 μm^2 squares with 20 μm-interspacing cylindrical pillar arrays; these pillar arrays could pre-filter white blood cells from whole blood, allowing only RBCs to pass through the main channels. Each of the parallel channels was 10 pillars wide and 200 pillars long. Along the flow direction, the inter-pillar spacing was 10 μm. This spacing allows deformed cells to recover and ready for subsequent deformations. Perpendicular to the flow direction, the pore size varied from 2.5 to 4 μm for different channels. Cells experience different levels of deformation when passing through these pores.
FIG. 55B presents microscopic screenshots illustrating both iRBCs and co-cultured uRBCs moving in the microchannel at different temperature conditions. The uninfected cells appear as dark shadows indicated by blue arrows, and the infected cells with thiazole orange (TO) staining appear as bright dots indicated by white arrows. The mobility of individual cells can then be derived by recording the time period for each cell passing through 10 constrictions in series (i.e. equivalent to 200 μm distance travelled). In this example, cell mobility is used to characterize the dynamic deformability of individual RBCs.
The deformability of both iRBCs and uRBCs were measured at 2, 4 and 6 hours after artesunate drug treatment (FIG. 60). A synchronized culture of rings with ˜15% parasitemia was resuspended at 0.1% hematocrit in malaria culture medium containing 0.01, 0.05 or 0.1 μg/ml of artesunate.
Layout program CleWin3.0 was used to design the microfluidic device, which consists of a 500×500 μm^2 inlet reservoir, a 500×500 μm^2 outlet reservoir, and parallel capillary channels with triangular pillar arrays (FIG. 55A). Three different pore-size of 2.5, 3.0 and 4.0 μm were designed for the capillary channels to test optimum deformation condition for the experiment. A silicon mold of the device was made using standard silicon processing techniques. The photolithography step was done using a 5× reduction step-and-repeat projection stepper (Nikon NSR2005i9, Nikon Prevision) and reactive-ion etching (RIE) techniques were used to give the mold a final depth of 4.2 μm. Final device was then casted from the silicon mold using polydimethylsiloxane (PDMS) and was sealed by a glass slide using oxygen plasma.
P. falciparum 3D7A parasites (from Malaria Research and Reference Reagent Source, American Type Culture Collection) were cultured in leukocyte-free human RBCs (Research Blood Components, Brighton Mass.) in RPMI 1640 complete medium as described (Trager and Jensen J. parasitol. 2005). […]

In the case of `O=CCCCC=O` [glutaraldehyde], the “passage of RBCs into the channel” value (RBCs; glutaraldehyde concentrations greater than 0.003%) is reported as “most RBCs were held up at the entrance to the channel, unable to deform”, the “RBCs that passed through the channels” value (RBCs; glutaraldehyde less than 0.002%, treatment for 30 minutes) is reported as “more than 95%” and the “RBC stiffness / velocity with increasing concentration” value (RBCs; increasing glutaraldehyde concentration, 30 minutes, approx. 0.61 Pa/μm) is reported as “progressively stiffer with decreasing velocity”.
For `C[C@H]1[C@H](OC(=O)CCC(=O)O)O[C@@H]2O[C@@]3(C)CC[C@H]4[C@H](C)CC[C@@H]1[C@@]24OO3` [artesunate], the “mobility decrease at earlier time points” value ([1]; 2 and 4 hours after artesunate treatment) was “smaller and less pronounced mobility decrease”, the mobility decrease ([1]; 6 hours after artesunate treatment, 0.01, 0.05 or 0.1 μg/ml, iRBCs and uRBCs) was 30%-50 and the “dose dependence of mobility changes” value ([1]; after 4 hour drug treatment, dosage range 0.01 to 0.1 μg/ml) was “no statistically significant dose dependence”. For the same compound, the “separation resolution between iRBCs and uRBCs after drug treatment” value [1] was “almost doubled”, the “separation resolution between iRBCs and uRBCs after drug treatment” value ([1]; listed as Artesunate) was “doubled” and the “effect on RBC deformability (stiffening)” value ([1]; iRBCs and uRBCs after artesunate treatment) was “stiffening effect on both iRBCs and uRBCs; also recorded: the drop in iRBC deformability is more precipitous than in uRBC”.
